# Data as given in paper PMC2988971 (Journal of medicinal chemistry, 2010).
# Counter-ions that a name gives are not always drawn. Like-named read-outs stand apart in the source and are kept apart here.
# What was measured:
# [1] = test system: A-10 cells; test: Effects on cellular microtubules; format: cell-based; conditions: for Effect on interphase microtubules: 18 h, cell-based phenotypic screen, Fig. 3
# [2] = test system: MDA-MB-435 cells; test: Sulforhodamine B; format: cell-based
# [3] = test system: WT βIII; test: SRB antiproliferative assay, βIII-tubulin expressing line; format: cell-based; conditions: for Rr (relative resistance), effect of βIII-tubulin on drug sensitivity: IC50 of the WT βIII cell line divided by IC50 of the parental HeLa cells
# [4] = target: Bovine brain tubulin (Bos taurus, UniProt P81947+Q6B856); test: Quantitative inhibition of tubulin assembly; format: biochemical
# Bovine brain tubulin, sequence (Q6B856 whole entry): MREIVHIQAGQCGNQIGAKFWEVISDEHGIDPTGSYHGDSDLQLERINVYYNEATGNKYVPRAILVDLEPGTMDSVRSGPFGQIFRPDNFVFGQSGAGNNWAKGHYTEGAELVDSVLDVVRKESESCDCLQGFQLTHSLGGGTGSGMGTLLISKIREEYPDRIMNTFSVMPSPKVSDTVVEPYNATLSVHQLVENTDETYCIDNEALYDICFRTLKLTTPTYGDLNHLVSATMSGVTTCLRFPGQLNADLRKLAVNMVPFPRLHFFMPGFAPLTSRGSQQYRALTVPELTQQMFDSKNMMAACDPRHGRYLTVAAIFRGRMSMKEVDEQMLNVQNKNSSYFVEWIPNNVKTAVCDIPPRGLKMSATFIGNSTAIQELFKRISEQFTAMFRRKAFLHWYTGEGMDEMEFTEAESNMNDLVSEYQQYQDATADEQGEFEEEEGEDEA
# Bovine brain tubulin, sequence (P81947 whole entry): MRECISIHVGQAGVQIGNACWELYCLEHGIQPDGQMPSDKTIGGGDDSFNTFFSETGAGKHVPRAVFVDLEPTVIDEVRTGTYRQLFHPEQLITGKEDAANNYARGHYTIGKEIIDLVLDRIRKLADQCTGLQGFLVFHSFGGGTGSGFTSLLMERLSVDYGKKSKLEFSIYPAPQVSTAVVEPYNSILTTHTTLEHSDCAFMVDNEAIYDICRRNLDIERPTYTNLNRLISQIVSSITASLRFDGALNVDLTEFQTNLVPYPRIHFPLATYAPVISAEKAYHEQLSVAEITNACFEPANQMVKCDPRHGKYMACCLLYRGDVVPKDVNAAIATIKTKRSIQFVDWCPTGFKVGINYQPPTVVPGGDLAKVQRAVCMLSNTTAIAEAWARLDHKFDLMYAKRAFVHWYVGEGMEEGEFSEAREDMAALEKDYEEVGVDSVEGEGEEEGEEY
# [5] = test system: purified bovine brain tubulin; test: In vitro tubulin polymerization; format: biochemical; conditions: initial study, Fig. 5; 10% glycerol, 3 mg/mL purified tubulin, 10 mM GTP
# [6] = test system: MDA-MB-435 cells; test: Cell cycle analysis by flow cytometry; format: cell-based; conditions: MDA-MB-435, 24 h, 850 nM 1, 45 nM (±)-3•HCl
# [7] = test system: 60 cancer cell lines; test: NCI 60 tumor cell line panel, summary over the panel
# [8] = test system: HL-60(TB); test: NCI 60 cell line panel tumor cell growth inhibition; format: cell-based; conditions: Homo sapiens
# [9] = test system: SK-OV-3; test: SRB antiproliferative assay, parental line of Pgp isogenic pair; format: cell-based; conditions: Homo sapiens, SK-OV-3, read-out: IC50 (SD) SK-OV-3
# [10] = test system: SK-OV-3 MDR-1-6/6; test: SRB antiproliferative assay, Pgp overexpressing; format: cell-based; conditions: Homo sapiens, SK-OV-3, read-out: IC50 (SD) SK-OV-3 MDR-1-6/6
# [11] = test system: HeLa; test: SRB antiproliferative assay, parental line of βIII-tubulin isogenic pair; format: cell-based; conditions: Homo sapiens, read-out: IC50 (SD) HeLa
# [12] = target: tubulin (colchicine site) (Bos taurus, UniProt P81947+Q6B856); test: Inhibition of [3H]colchicine binding to tubulin; design: species or system bovine; conditions: read-out: Inhibition of colchicine binding % Inhibition ± SD
# tubulin (colchicine site), sequence (Q6B856 whole entry): as the sequence (Q6B856 whole entry) above
# tubulin (colchicine site), sequence (P81947 whole entry): as the sequence (P81947 whole entry) above
# [13] = test system: K-562; test: NCI 60 cell line panel tumor cell growth inhibition; conditions: Homo sapiens, K562
# [14] = test system: SR; test: as above; conditions: Homo sapiens
# [15] = test system: NCI-H522; test: as above; conditions: Homo sapiens
# [16] = test system: HCT-15; test: as above; conditions: Homo sapiens
# [17] = test system: KM12; test: as above; conditions: Homo sapiens
# [18] = test system: SW-620; test: as above; conditions: Homo sapiens
# [19] = test system: SF-295; test: as above; conditions: Homo sapiens
# [20] = test system: SNB-75; test: as above; conditions: Homo sapiens
# [21] = test system: MDA-MB-435; test: as above; conditions: Homo sapiens
# [22] = test system: SK-MEL-28; test: as above; conditions: Homo sapiens
# [23] = test system: SK-MEL-5; test: as above; conditions: Homo sapiens
# [24] = test system: UACC-62; test: as above; conditions: Homo sapiens
# [25] = test system: OVCAR-3; test: as above; conditions: Homo sapiens
# [26] = test system: NCI/ADR-RES; test: as above; conditions: Homo sapiens
# [27] = test system: A498; test: as above; conditions: Homo sapiens
# [28] = test system: RXF 393; test: as above; conditions: Homo sapiens
# [29] = test system: MCF7; test: as above; conditions: Homo sapiens
# [30] = test system: HS 578T; test: as above; conditions: Homo sapiens
# [31] = test system: MDA-MB-468; test: as above; conditions: Homo sapiens
# [32] = Homo sapiens, MDA-MB-435, read-out: IC50±SD (MDA-MB-435)
molecule,measurement,setting,value
"COc1ccccc1N(C)c1nc(C)nc2c1CC(C)C2.Cl (racemic) [(±)-6•HCl, N-(2-Methoxyphenyl)-N,2,6-trimethyl-6,7-dihydro-5H-cyclopenta[d]pyrimidin-4-aminium chloride]",Activity,"[1]; Table 2 data, 2′-OCH3 analog",inactive
"N-(4-Methoxyphenyl)-2,6-dimethyl-6,7-dihydro-5H-cyclopenta[d]pyrimidin-4-amine [(±)-4]",IC50,"[2]; read-out: IC50±SD (MDA-MB-435), inhibition of proliferation, SRB assay",> 10000 nM
same,EC50,"[1]; read-out: EC50 for microtubule depolymerization, concentration required to cause 50% loss of cellular microtubules, A-10 cells",> 40000 nM
"Cc1nc2c(c(N(C)c3ccccc3)n1)CC(C)C2 (racemic) [(±)-7•HCl, N-Phenyl-N,2,6-trimethyl-6,7-dihydro-5H-cyclopenta[d]pyrimidin-4-aminium chloride]",IC50,[2]; [32],2700 ± 300 nM
"COc1ccc(N(C)c2nc(C)nc3[nH]ccc23)cc1 [Compound 1, N-(4-Methoxyphenyl)-N,2-dimethyl-7H-pyrrolo[2,3-d]pyrimidin-4-amine]",Effect on interphase microtubules,[1]; A-10 cells,dramatic reorganization of the interphase microtubule network
same,"Rr (relative resistance), effect of βIII-tubulin on drug sensitivity",[3],0.6–0.7
same,IC50,[4],2600 ± 50 nM
same,Effect on polymerization of purified tubulin,[5],potent inhibitors of purified tubulin assembly
same,Cell cycle effect,[6],mitotic accumulation
same,GI50,[7],< 500 nM
"COc1ccc(N(C)c2nc(C)nc3c2CC(C)C3)cc1.Cl (racemic) [(±)-3•HCl, N-(4-Methoxyphenyl)-N,2,6-trimethyl-6,7-dihydro-5H-cyclopenta[d]pyrimidin-4-aminium chloride]",GI50,[8],< 10 nM
same,IC50,[2]; [32],17 ± 0.7 nM
same,Effect on interphase microtubules,[1]; A-10 cells,dramatic reorganization of the interphase microtubule network
same,IC50,[9],38.6 ± 3.1 nM
same,IC50,[10],44.4 ± 3.2 nM
same,IC50,[11],37.3 ± 4.1 nM
same,"Rr (relative resistance), effect of βIII-tubulin on drug sensitivity",[3],0.6–0.7
same,"Rr (relative resistance), effect of βIII-tubulin on drug sensitivity",[3]; listed as (±)-3•HCI,0.6
same,IC50,[3]; read-out: IC50 (SD) WT βIII,23.9 ± 1.7 nM
same,IC50,[4],1900 ± 10 nM
same,inhibition at 1 µM,[12],60 ± 2%
same,inhibition at 5 µM,[12],84 ± 3%
same,Effect on polymerization of purified tubulin,[5],potent inhibitors of purified tubulin assembly
same,Cell cycle effect,[6],mitotic accumulation
same,GI50,[13],< 10 nM
same,GI50,[14],< 10 nM
same,GI50,[15],< 10 nM
same,GI50,[16],< 10 nM
same,GI50,[17],< 10 nM
same,GI50,[18],< 10 nM
same,GI50,[19],< 10 nM
same,GI50,[20],< 10 nM
same,GI50,[21],< 10 nM
same,GI50,[22],< 10 nM
same,GI50,[23],< 10 nM
same,GI50,[24],< 10 nM
same,GI50,[25],< 10 nM
same,GI50,[26],< 10 nM
same,GI50,[27],< 10 nM
same,GI50,[28],< 10 nM
same,GI50,[29],< 10 nM
same,GI50,[30],< 10 nM
same,GI50,[31],< 10 nM
same,GI50,[7],< 30 nM
"COc1cccc(N(C)c2nc(C)nc3c2CC(C)C3)c1.Cl (racemic) [(±)-5•HCl, N-(3-Methoxyphenyl)-N,2,6-trimethyl-6,7-dihydro-5H-cyclopenta[d]pyrimidin-4-aminium chloride]",IC50,[2]; [32],153 ± 11.1 nM
same,fold less potent than (±)-3•HCl,"[2]; comparison of 3′-OCH3 with 4′-OCH3 analog, Table 2",about 9 fold
"COc1ccc(/C=C\c2cc(OC)c(OC)c(OC)c2)cc1OP(=O)(O)O [CA4P, combretastatin A-4 phosphate, reference compound]",IC50,[4],1000 ± 90 nM
same,inhibition at 1 µM,[12],88 ± 2%
same,inhibition at 5 µM,[12],99 ± 0.2%
